The values that follow come from ChEMBL document CHEMBL5625193, “Modulation of taxane binding to tubulin curved and straight conformations by systematic 3'N modification provides for improved microtubule binding, persistent cytotoxicity and in vivo potency” (Eur J Med Chem, 2023).

For series [1] the following is noted: human, mda-mb-231, 2 h.
For series [2] the following is noted: human, mda-mb-231, 24 h.

On to `CC(=O)O[C@H]1C(=O)[C@@]2(C)[C@H]([C@H](OC(=O)c3ccccc3)[C@]3(O)C[C@H](OC(=O)[C@H](O)[C@@H](NC(=O)c4ccccc4)c4ccccc4)C(C)=C1C3(C)C)[C@]1(OC(C)=O)CO[C@@H]1C[C@@H]2O` [PACLITAXEL], for which the Drug uptake result in series [1] and in series [2] was “Active” each time.
